The results in this text go back to patent publication EP2970215B1, “PYRROLIDINE DERIVATIVES, PHARMACEUTICAL COMPOSITIONS CONTAINING THEM, AND THEIR USE IN THERAPY” (AbbVie Deutschland GmbH & Co. KG, priority 2013, dated 2014).

The experiment deals with T1, human GlyT1c transporter (Homo sapiens, UniProt P48067).
T1 construct: expressed in transfected cells; host or cells: CHO cells (recombinant; line hGlyT1c_5_CHO is named for the uptake assay)
T1 sequence (P48067 1-706): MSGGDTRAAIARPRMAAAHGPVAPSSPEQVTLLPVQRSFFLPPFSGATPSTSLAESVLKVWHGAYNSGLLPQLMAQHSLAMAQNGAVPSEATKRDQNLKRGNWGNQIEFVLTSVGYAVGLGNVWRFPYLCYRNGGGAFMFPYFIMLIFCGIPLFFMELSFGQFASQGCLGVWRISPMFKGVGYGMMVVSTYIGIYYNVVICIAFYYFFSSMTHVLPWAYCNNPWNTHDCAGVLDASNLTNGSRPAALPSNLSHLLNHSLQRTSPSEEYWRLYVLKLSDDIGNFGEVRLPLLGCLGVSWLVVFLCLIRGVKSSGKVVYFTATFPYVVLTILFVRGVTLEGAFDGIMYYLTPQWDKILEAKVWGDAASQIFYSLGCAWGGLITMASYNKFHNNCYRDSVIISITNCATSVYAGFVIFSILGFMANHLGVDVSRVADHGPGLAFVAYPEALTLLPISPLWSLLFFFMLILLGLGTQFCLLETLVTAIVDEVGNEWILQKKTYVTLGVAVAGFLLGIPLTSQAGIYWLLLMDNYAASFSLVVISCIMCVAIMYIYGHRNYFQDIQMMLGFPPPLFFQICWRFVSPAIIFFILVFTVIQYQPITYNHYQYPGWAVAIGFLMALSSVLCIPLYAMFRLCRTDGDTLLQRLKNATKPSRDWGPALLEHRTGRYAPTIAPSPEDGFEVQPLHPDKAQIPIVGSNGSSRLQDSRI
The experiment is described as follows: Radioligand binding assay using recombinant CHO cell membranes expressing human GlyT1. The conditions noted are these: radioligand binding to human GlyT1c transporter-expressing membranes. An excerpt: 2. Radioligand binding assays using recombinant CHO cell membranes expressing human GlyT1: […]
As to `Cn1cnc(S(=O)(=O)N2C[C@@H](Nc3ccnc(F)c3)[C@H](c3ccc(F)cc3)C2)c1` (relative stereo) [Example 239, 2-fluoro-N-{trans-4-(4-fluorophenyl)-1-[(1-methyl-1H-imidazol-4-yl)sulfonyl]pyrrolidin-3-yl} pyridin-4-amine], the Ki (in general, the equilibrium dissociation constant of an inhibitor or competing ligand from its target) was at most 10 µM.
The figure for `Cn1cnc(S(=O)(=O)N2C[C@@H](Nc3ccc(F)cc3F)[C@H](c3ccc(F)cc3)C2)c1` (relative stereo) [Example 165, trans-N-(2,4-difluorophenyl)-4-(4-fluorophenyl)-1-[(1-methyl-1H-imidazol-4-yl)sulfonyl]pyrrolidin-3-amine] is at most 1 µM; for `Cc1cc(N[C@H]2CN(S(=O)(=O)c3cn(C)cn3)C[C@@H]2c2ccccc2)ncn1` [Example 637, 6-methyl-N-{(3R,4S)-1-[(1-methyl-1H-imidazol-4-yl)sulfonyl]-4-phenylpyrrolidin-3-yl}pyrimidin-4-amine] it is at most 10 µM.
In the case of `CCCC1CC1CN[C@H]1CN(S(=O)(=O)c2cn(C)cn2)C[C@@H]1c1ccccc1` (stereo partly drawn) [Example 649, (3R,4S)-1-[(1-methyl-1H-imidazol-4-yl)sulfonyl]-4-phenyl-N-[(2-propylcyclopropyl)methyl]pyrrolidin-3-amine], the Ki is at most 0.1 µM.
For `Cn1cnc(S(=O)(=O)N2C[C@@H](Nc3ccc(Cl)c(C(F)(F)F)c3)[C@H](c3ccc(F)cc3)C2)c1` (relative stereo) [Example 172, trans-N-[4-chloro-3-(trifluoromethyl)phenyl]-4-(4-fluorophenyl)-1-[(1-methyl-1H-imidazol-4-yl)sulfonyl]pyrrolidin-3-amine], the Ki is at most 0.1 µM.
The figure for `Cn1cnc(S(=O)(=O)N2C[C@@H](CNc3ccc(F)c(C(F)(F)F)c3)[C@H](c3ccc(F)cc3)C2)c1` (relative stereo) [Example 313, 4-fluoro-N-({trans-4-(4-fluorophenyl)-1-[(1-methyl-1H-imidazol-4-yl)sulfonyl]pyrrolidin-3-yl}methyl)-3-(trifluoromethyl)aniline] is at most 1 µM; for `COCCCN[C@H]1CN(S(=O)(=O)c2cn(C)cn2)C[C@@H]1c1ccccc1` [Example 588, (3R,4S)-N-(3-methoxypropyl)-1-[(1-methyl-1H-imidazol-4-yl)sulfonyl]-4-phenylpyrrolidin-3-amine] it is at most 10 µM.
The value for `Cn1cnc(S(=O)(=O)N2C[C@@H](Nc3ccc(F)c(C(F)(F)F)c3)[C@H](c3ccccc3Cl)C2)c1` (relative stereo) [Example 258, trans-4-(2-chlorophenyl)-N-[4-fluoro-3-(trifluoromethyl)phenyl]-1-[(1-methyl-1H-imidazol-4-yl)sulfonyl]pyrrolidin-3-amine] was at most 1 µM; that for `Cn1cnc(S(=O)(=O)N2C[C@@H](NC(=O)c3ccccc3F)[C@H](c3ccccc3)C2)c1` (relative stereo) [Example 17, 2-fluoro-N-{trans-1-[(1-methyl-1H-imidazol-4-yl)sulfonyl]-4-phenylpyrrolidin-3-yl}benzamide] was at most 10 µM; that for `Cn1cnc(S(=O)(=O)N2C[C@H](Nc3cc(C(F)(F)F)c(Cl)cn3)[C@@H](c3ccc(F)cc3)C2)c1` [Example 617, 5-chloro-N-{(3R,4S)-4-(4-fluorophenyl)-1-[(1-methyl-1H-imidazol-4-yl)sulfonyl]pyrrolidin-3-yl}-4-(trifluoromethyl)pyridin-2-amine] was at most 0.01 µM.
The figure for `Cn1cnc(S(=O)(=O)N2C[C@@H](NC(=O)c3ccc(C(F)(F)F)c(Cl)c3)[C@H](c3ccc(F)cc3)C2)c1` (relative stereo) [Example 63, 3-chloro-N-{trans-4-(4-fluorophenyl)-1-[(1-methyl-1H-imidazol-4-yl)sulfonyl]pyrrolidin-3-yl}-4-(trifluoromethyl)benzamide] is at most 0.1 µM.
